Measurements: the NIST ThermoML archive (doi:10.1021/je9005618)

Assay: refractive index (Na D-line) (dimensionless); xn = mol fraction of the nth substance listed
Conditions: 101 kPa, Liquid

CCn1cc[n+](C)c1.O=S(=O)([O-])C(F)(F)F [1-ethyl-3-methylimidazolium trifluoromethanesulfonate] + CC(C)=O
refractive index
Conditions | 288.15 K | 298.15 K | 308.15 K | 318.15 K
x1 = 0.04957 | 1.37495 | 1.36994 | 1.36575 | 1.36218
x1 = 0.1005 | 1.38499 | 1.38033 | 1.37615 | 1.37308
x1 = 0.1503 | 1.39293 | 1.38854 | 1.38475 | 1.38186
x1 = 0.2007 | 1.39936 | 1.39527 | 1.39155 | 1.38862
x1 = 0.2995 | 1.40865 | 1.40492 | 1.40133 | 1.39777
x1 = 0.3973 | 1.41585 | 1.41237 | 1.409 | 1.40574
x1 = 0.5018 | 1.42117 | 1.41787 | 1.41464 | 1.41148
x1 = 0.5996 | 1.42541 | 1.42225 | 1.41908 | 1.41604
x1 = 0.6973 | 1.42854 | 1.42549 | 1.4225 | 1.41953
x1 = 0.7733 | 1.43087 | 1.42786 | 1.4249 | 1.42199
x1 = 0.8452 | 1.43253 | 1.42963 | 1.42676 | 1.42392
x1 = 0.8988 | 1.43368 | 1.43085 | 1.42803 | 1.42518
x1 = 0.9559 | 1.43487 | 1.43207 | 1.42925 | 1.4265

CCn1cc[n+](C)c1.O=S(=O)([O-])C(F)(F)F [1-ethyl-3-methylimidazolium trifluoromethanesulfonate] + CCOC(C)=O
refractive index
Conditions | 288.15 K | 298.15 K | 308.15 K | 318.15 K | 328.15 K
x1 = 0.04887 | 1.38327 | 1.37802 | 1.37297 | 1.3691 | 1.3631
x1 = 0.1503 | 1.39622 | 1.39151 | 1.3881 | 1.38476 | 1.38129
x1 = 0.2004 | 1.40093 | 1.39666 | 1.3944 | 1.3917 | 1.38772
x1 = 0.2998 | 1.40907 | 1.40499 | 1.40234 | 1.39937 | 1.39558
x1 = 0.399 | 1.41507 | 1.41144 | 1.40854 | 1.40604 | 1.4031
x1 = 0.5006 | 1.42038 | 1.41682 | 1.41415 | 1.41137 | 1.40906
x1 = 0.5977 | 1.42469 | 1.42133 | 1.4186 | 1.41549 | 1.41251
x1 = 0.6974 | 1.42874 | 1.42566 | 1.42254 | 1.41963 | 1.41671
x1 = 0.7962 | 1.43118 | 1.42823 | 1.42528 | 1.42239 | 1.41954
x1 = 0.8474 | 1.43242 | 1.4295 | 1.42662 | 1.42376 | 1.42094
x1 = 0.9011 | 1.43367 | 1.43075 | 1.42792 | 1.42471 | 1.42195
x1 = 0.9491 | 1.43467 | 1.43182 | 1.42903 | 1.42624 | 1.42352

CCn1cc[n+](C)c1.O=S(=O)([O-])C(F)(F)F [1-ethyl-3-methylimidazolium trifluoromethanesulfonate] + COC(C)=O
refractive index
Conditions | 288.15 K | 298.15 K | 308.15 K | 318.15 K
x1 = 0.05083 | 1.37625 | 1.37116 | 1.3671 | 1.36334
x1 = 0.09991 | 1.38561 | 1.38057 | 1.37793 | 1.37521
x1 = 0.1515 | 1.39328 | 1.38873 | 1.38548 | 1.38291
x1 = 0.1998 | 1.39836 | 1.39419 | 1.39098 | 1.38871
x1 = 0.2997 | 1.40796 | 1.40429 | 1.40087 | 1.39857
x1 = 0.4003 | 1.41462 | 1.4112 | 1.40804 | 1.40487
x1 = 0.4958 | 1.42026 | 1.41695 | 1.41367 | 1.41049
x1 = 0.595 | 1.42444 | 1.42123 | 1.41831 | 1.41533
x1 = 0.6962 | 1.42797 | 1.42488 | 1.42201 | 1.41907
x1 = 0.7954 | 1.43089 | 1.42794 | 1.4251 | 1.42226
x1 = 0.8385 | 1.43234 | 1.42944 | 1.42649 | 1.42364
x1 = 0.8977 | 1.43347 | 1.43061 | 1.42771 | 1.42488
x1 = 0.9466 | 1.43451 | 1.4317 | 1.4289 | 1.42618
